Experimental findings from ChEMBL document CHEMBL3400076, “Three-dimensional rational approach to the discovery of potent substituted cyclopropyl urea soluble epoxide hydrolase inhibitors” (Bioorg Med Chem Lett, 2015) are described below.

Assay [1] deals with T1, Bifunctional epoxide hydrolase 2 (Homo sapiens, UniProt P34913).
T1 sequence (P34913 whole entry): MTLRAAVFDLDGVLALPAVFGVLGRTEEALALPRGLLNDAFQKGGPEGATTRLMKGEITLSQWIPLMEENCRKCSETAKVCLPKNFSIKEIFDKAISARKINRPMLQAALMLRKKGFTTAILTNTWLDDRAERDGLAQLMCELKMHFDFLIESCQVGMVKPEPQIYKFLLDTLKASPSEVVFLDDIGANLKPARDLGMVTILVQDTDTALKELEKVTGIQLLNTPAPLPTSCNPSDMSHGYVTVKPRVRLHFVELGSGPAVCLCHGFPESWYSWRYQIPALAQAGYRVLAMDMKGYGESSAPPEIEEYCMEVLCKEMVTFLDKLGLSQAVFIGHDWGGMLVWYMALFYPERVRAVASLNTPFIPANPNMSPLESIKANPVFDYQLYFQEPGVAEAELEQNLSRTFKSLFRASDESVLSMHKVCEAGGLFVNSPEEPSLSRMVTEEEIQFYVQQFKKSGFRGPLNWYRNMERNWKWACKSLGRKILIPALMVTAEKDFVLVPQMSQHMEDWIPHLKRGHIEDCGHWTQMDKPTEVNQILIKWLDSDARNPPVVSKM
Description: Inhibition of recombinant human soluble epoxide hydrolase assessed as increase in fluorescence intensity by fluorescence plate reader.

Assay [2] concerns the target T2, Bifunctional epoxide hydrolase 2 (Rattus norvegicus, UniProt P80299).
T2 sequence (P80299 whole entry): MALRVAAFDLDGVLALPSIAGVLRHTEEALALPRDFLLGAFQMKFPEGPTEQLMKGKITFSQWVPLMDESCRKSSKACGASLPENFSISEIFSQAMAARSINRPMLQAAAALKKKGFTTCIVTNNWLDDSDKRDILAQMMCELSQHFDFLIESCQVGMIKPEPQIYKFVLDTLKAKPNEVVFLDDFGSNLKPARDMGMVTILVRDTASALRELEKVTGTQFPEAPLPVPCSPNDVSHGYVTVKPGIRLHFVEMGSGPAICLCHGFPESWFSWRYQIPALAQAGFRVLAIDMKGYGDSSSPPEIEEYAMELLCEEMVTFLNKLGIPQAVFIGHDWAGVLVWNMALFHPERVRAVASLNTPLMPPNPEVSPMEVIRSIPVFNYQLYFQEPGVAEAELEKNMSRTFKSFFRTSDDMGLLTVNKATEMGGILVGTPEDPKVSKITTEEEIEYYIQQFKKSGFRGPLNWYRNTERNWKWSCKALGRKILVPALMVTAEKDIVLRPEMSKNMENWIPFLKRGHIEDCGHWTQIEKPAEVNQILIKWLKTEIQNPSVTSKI
Description: Inhibition of recombinant rat soluble epoxide hydrolase assessed as increase in fluorescence intensity by fluorescence plate reader.

SMILES strings stand for the structures.

Regarding `O=C(O)CCc1ccc(OC2CCN(C(=O)N[C@@H]3[C@@H](c4ccccc4)[C@H]3c3ccccc3)CC2)cc1`, the IC50 (as a rule, the concentration that inhibits the measured activity by half) in assay [1] was found to be 2.3 nM; in assay [2] it was 3.9 nM.

In the case of `O=C(O)CCc1ccc(OC2CCN(C(=O)N[C@@H]3[C@@H](c4ccc(F)cc4)[C@H]3c3ccc(F)cc3)CC2)cc1`, the values for the IC50 in assay [1] and in assay [2] were 2.1 nM and 3.2 nM, respectively.

On to `O=C(N[C@@H]1[C@@H](c2ccccc2)[C@H]1c1ccccc1)N1CCCCC1`, for which the IC50 in assay [1] was found to be 1.8 nM; in assay [2], 0.2 nM.

For the compound `CN1CCN(C(=O)N[C@@H]2[C@@H](c3ccccc3)[C@H]2c2ccccc2)CC1`, the IC50 in assay [1] is 14.4 nM; in assay [2], 27.7 nM.

With `CS(=O)(=O)N[C@@H]1CCCN(C(=O)N[C@@H]2[C@@H](c3ccccc3)[C@H]2c2ccccc2)C1` (mixture of isomers), the IC50 in assay [1] came to 1.4 nM; in assay [2] it was 0.8 nM.

In the case of `O=C(N[C@@H]1[C@@H](c2ccccc2)[C@H]1c1ccccc1)N1CCC[C@@H](NS(=O)(=O)c2ccc(F)cc2)C1` (mixture of isomers), the IC50 in assay [1] was 0.7 nM; in assay [2] it was 0.2 nM.

On to `O=C(O)CCc1ccc(OC2CCN(C(=O)N[C@H]3C[C@@H]3c3ccccc3)CC2)cc1` (racemic), for which the IC50 in assay [1] was 19.1 nM; in assay [2] it was 55.6 nM.

In the case of `CC1(C)[C@H](NC(=O)N2CCC(Oc3ccc(CCC(=O)O)cc3)CC2)[C@H]1c1ccccc1` (racemic), the IC50 in assay [1] and in assay [2] was > 100 nM throughout.

For the compound `C[C@H]1[C@H](NC(=O)N2CCC(Oc3ccc(CCC(=O)O)cc3)CC2)[C@H]1c1ccccc1` (racemic), the results for the IC50 in assay [1] and in assay [2] were 12 nM and 11.7 nM, respectively.

For the compound `C[C@@H]1[C@H](NC(=O)N2CCC(Oc3ccc(CCC(=O)O)cc3)CC2)[C@H]1c1ccccc1` (racemic), the values for the IC50 in assay [1] and in assay [2] were 75.7 nM and > 100 nM, respectively.
